Source: PubChem BioAssay (NCI)
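Tested at 5 concentrations; 48 h exposure; 96-well plates; endpoints linearly interpolated, else capped at highest concentration. The concentration for 50% growth inhibition is given as GI50. TGI denotes the concentration required for complete inhibition of growth.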

What was measured:
Assay in all cases: NCI anticancer screen, dose series, 48 h
T-47D breast = tested on: T-47D breast
OVCAR-5 ovarian = tested on: OVCAR-5 ovarian
UACC-257 melanoma = tested on: UACC-257 melanoma
NCI-H460 lung = tested on: NCI-H460 lung
SNB-19 CNS = tested on: SNB-19 CNS
SR leukemia = tested on: SR leukemia
M14 melanoma = tested on: M14 melanoma
HL-60(TB) leukemia = tested on: HL-60(TB) leukemia
HOP-92 NSCLC = tested on: HOP-92 NSCLC
SK-OV-3 ovarian = tested on: SK-OV-3 ovarian
HOP-62 NSCLC = tested on: HOP-62 NSCLC
SF-539 CNS = tested on: SF-539 CNS
HCT-15 colon = tested on: HCT-15 colon
NCI-H226 lung = tested on: NCI-H226 lung
NCI-H23 lung = tested on: NCI-H23 lung
IGROV1 ovarian = tested on: IGROV1 ovarian
MDA-MB-231 breast = tested on: MDA-MB-231 breast
CCRF-CEM leukemia = tested on: CCRF-CEM leukemia
MOLT-4 leukemia = tested on: MOLT-4 leukemia
RPMI-8226 leukemia = tested on: RPMI-8226 leukemia
COLO 205 colon = tested on: COLO 205 colon
OVCAR-8 ovarian = tested on: OVCAR-8 ovarian
NCI-H522 lung = tested on: NCI-H522 lung
SN12C renal = tested on: SN12C renal
SK-MEL-2 melanoma = tested on: SK-MEL-2 melanoma
HS 578T breast = tested on: HS 578T breast
SNB-75 CNS = tested on: SNB-75 CNS
DU-145 prostate = tested on: DU-145 prostate
UACC-62 melanoma = tested on: UACC-62 melanoma
UO-31 renal = tested on: UO-31 renal
SK-MEL-28 melanoma = tested on: SK-MEL-28 melanoma
A549 NSCLC = tested on: A549 NSCLC
MCF7 breast = tested on: MCF7 breast
U251 CNS = tested on: U251 CNS
NCI/ADR-RES ovarian = tested on: NCI/ADR-RES ovarian
SK-MEL-5 melanoma = tested on: SK-MEL-5 melanoma
LOX IMVI melanoma = tested on: LOX IMVI melanoma
SF-268 CNS = tested on: SF-268 CNS
786-0 renal = tested on: 786-0 renal
BT-549 breast = tested on: BT-549 breast
MDA-MB-435 = tested on: MDA-MB-435
RXF 393 renal = tested on: RXF 393 renal
CAKI-1 renal = tested on: CAKI-1 renal
HCT-116 colon = tested on: HCT-116 colon
TK-10 renal = tested on: TK-10 renal
OVCAR-4 ovarian = tested on: OVCAR-4 ovarian
MALME-3M melanoma = tested on: MALME-3M melanoma
A498 renal = tested on: A498 renal
K-562 leukemia = tested on: K-562 leukemia
MDA-MB-468 breast = tested on: MDA-MB-468 breast
PC-3 prostate = tested on: PC-3 prostate
EKVX NSCLC = tested on: EKVX NSCLC
HCC-2998 colon = tested on: HCC-2998 colon
KM12 colon = tested on: KM12 colon
SW-620 colon = tested on: SW-620 colon
SF-295 CNS = tested on: SF-295 CNS
ACHN renal = tested on: ACHN renal
OVCAR-3 ovarian = tested on: OVCAR-3 ovarian
HT29 colon = tested on: HT29 colon

Q: What does the source list for `O=C(c1ccc(O)cc1)C1[C@H](c2ccc(Cl)cc2)[C@@H](c2ccccc2)NC12C(=O)Nc1ccc(Br)cc12` (stereo partly drawn)?
A: GI50 (T-47D breast): 11.7 µM; TGI (T-47D breast): 24.1 µM; GI50 (OVCAR-5 ovarian): 13.7 µM; TGI (OVCAR-5 ovarian): 26.6 µM; GI50 (UACC-257 melanoma): 14.8 µM; TGI (UACC-257 melanoma): 28.6 µM; GI50 (NCI-H460 lung): 14.7 µM; TGI (NCI-H460 lung): 28.8 µM; GI50 (SNB-19 CNS): 14.6 µM; TGI (SNB-19 CNS): 27.7 µM; GI50 (SR leukemia): 10.6 µM; TGI (SR leukemia): 26.2 µM; GI50 (M14 melanoma): 12.8 µM; TGI (M14 melanoma): 25.5 µM; GI50 (HL-60(TB) leukemia): 20.4 µM; TGI (HL-60(TB) leukemia): 46.5 µM; GI50 (HOP-92 NSCLC): 14.2 µM; TGI (HOP-92 NSCLC): 28.6 µM; GI50 (SK-OV-3 ovarian): 14.9 µM; TGI (SK-OV-3 ovarian): 28.3 µM; GI50 (HOP-62 NSCLC): 13.9 µM; TGI (HOP-62 NSCLC): 27.5 µM; GI50 (SF-539 CNS): 14.7 µM; TGI (SF-539 CNS): 28 µM; GI50 (HCT-15 colon): 13.6 µM; TGI (HCT-15 colon): 26.8 µM; GI50 (NCI-H226 lung): 13.6 µM; TGI (NCI-H226 lung): 28.9 µM; GI50 (NCI-H23 lung): 15.1 µM; TGI (NCI-H23 lung): 29.2 µM; GI50 (IGROV1 ovarian): 12.1 µM; TGI (IGROV1 ovarian): 24.8 µM; GI50 (MDA-MB-231 breast): 13.1 µM; TGI (MDA-MB-231 breast): 26 µM; GI50 (CCRF-CEM leukemia): 18.9 µM; TGI (CCRF-CEM leukemia): 45 µM; GI50 (MOLT-4 leukemia): 11.6 µM; TGI (MOLT-4 leukemia): 32.2 µM; GI50 (RPMI-8226 leukemia): 23.6 µM; TGI (RPMI-8226 leukemia): 69.2 µM; GI50 (COLO 205 colon): 15.8 µM; TGI (COLO 205 colon): 30 µM; GI50 (OVCAR-8 ovarian): 15.5 µM; TGI (OVCAR-8 ovarian): 30.7 µM; GI50 (NCI-H522 lung): 13.3 µM; TGI (NCI-H522 lung): 26.6 µM; GI50 (SN12C renal): 14.7 µM; TGI (SN12C renal): 28.4 µM; GI50 (SK-MEL-2 melanoma): 14.4 µM; TGI (SK-MEL-2 melanoma): 28.3 µM; GI50 (HS 578T breast): 15.2 µM; TGI (HS 578T breast): 38.2 µM; GI50 (SNB-75 CNS): 10.8 µM; TGI (SNB-75 CNS): 26.2 µM; GI50 (DU-145 prostate): 16.6 µM; TGI (DU-145 prostate): 31.6 µM; GI50 (UACC-62 melanoma): 11.8 µM; TGI (UACC-62 melanoma): 24.1 µM; GI50 (UO-31 renal): 10.6 µM; TGI (UO-31 renal): 22.4 µM; GI50 (SK-MEL-28 melanoma): 16.3 µM; TGI (SK-MEL-28 melanoma): 30 µM; GI50 (A549 NSCLC): 11.8 µM; TGI (A549 NSCLC): 25.9 µM; GI50 (MCF7 breast): 12.2 µM; TGI (MCF7 breast): 25.7 µM; GI50 (U251 CNS): 15 µM; TGI (U251 CNS): 29.6 µM; GI50 (NCI/ADR-RES ovarian): 16.6 µM; TGI (NCI/ADR-RES ovarian): 31.5 µM; GI50 (SK-MEL-5 melanoma): 15.7 µM; TGI (SK-MEL-5 melanoma): 29.1 µM; GI50 (LOX IMVI melanoma): 14 µM; TGI (LOX IMVI melanoma): 27 µM; GI50 (SF-268 CNS): 14.4 µM; TGI (SF-268 CNS): 31 µM; GI50 (786-0 renal): 1.64 µM; TGI (786-0 renal): 3 µM; GI50 (BT-549 breast): 16.3 µM; TGI (BT-549 breast): 30 µM; GI50 (MDA-MB-435): 16.2 µM; TGI (MDA-MB-435): 31.9 µM; GI50 (RXF 393 renal): 13 µM; TGI (RXF 393 renal): 26.3 µM; GI50 (CAKI-1 renal): 10.8 µM; TGI (CAKI-1 renal): 23.4 µM; GI50 (HCT-116 colon): 12.6 µM; TGI (HCT-116 colon): 25.1 µM; GI50 (TK-10 renal): 13.8 µM; TGI (TK-10 renal): 27 µM; GI50 (OVCAR-4 ovarian): 14.3 µM; TGI (OVCAR-4 ovarian): 28.1 µM; GI50 (MALME-3M melanoma): 15.1 µM; TGI (MALME-3M melanoma): 28.8 µM; GI50 (A498 renal): 13.8 µM; TGI (A498 renal): 27 µM; GI50 (K-562 leukemia): 14.3 µM; TGI (K-562 leukemia): 43.5 µM; GI50 (MDA-MB-468 breast): 8.82 µM; TGI (MDA-MB-468 breast): 21.3 µM; GI50 (PC-3 prostate): 12.3 µM; TGI (PC-3 prostate): 25.9 µM; GI50 (EKVX NSCLC): 11 µM; TGI (EKVX NSCLC): 23.2 µM; GI50 (HCC-2998 colon): 14.1 µM; TGI (HCC-2998 colon): 27.3 µM; GI50 (KM12 colon): 13.4 µM; TGI (KM12 colon): 29.5 µM; GI50 (SW-620 colon): 14.4 µM; TGI (SW-620 colon): 28.1 µM; GI50 (SF-295 CNS): 12.4 µM; TGI (SF-295 CNS): 25 µM; GI50 (ACHN renal): 12.6 µM; TGI (ACHN renal): 25.2 µM; GI50 (OVCAR-3 ovarian): 13.8 µM; TGI (OVCAR-3 ovarian): 28 µM; GI50 (HT29 colon): 14 µM; TGI (HT29 colon): 27.9 µM
